Laboratory results reported in US10071051B2, “WT1 peptide cancer vaccine composition for transdermal administration” (NITTO DENKO CORPORATION, priority 2013, dated 2018).

Columns and labels:
[1] = system: IFN-γ-producing cells (antigen-specific cellular immunity); experiment: Mouse immunization test 3 (liquid formulation for external use), IFN-γ ELISPOT; type: in vivo, C57BL/6 mouse; details: compared with acid-free comparative example
Procedure: (§1) Mouse immunization test was performed with the cream formulations using a model animal for immunological evaluation. Evaluation of the immunity induction level was performed by the ELISPOT method. Specifically, the hair of the back of the mouse was cut. The mouse was kept until it recovered from the skin damage due to the hair cutting. After that, a sample was applied to the back of the mouse for the predetermined time, and then removed. Then, the mouse was kept for predetermined days and the level of the antigen-specific cellular immunity was evaluated. After predetermined days from the application of the sample, the spleen was isolated and a spleen cell suspension was prepared. Spleen cells (3×10^6 cells/well) and the antigen peptide (100 μM) together with the culturing medium were placed into a well of an ELISPOT plate on which an anti-mouse IFN-γ antibody had been immobilized. The plate was cultured for 20 hours under the condition of 37° C. and 5% CO2. The number of the spots representing IFN-γ-producing cells (spot number/3×10^6 cells) was evaluated by the ELISPOT method. In all cases, 4 mg of the cream formulation was applied once for 24 hours and the spleen was isolated 6 days after the completion of the application.
Mouse Immunization Test 3 (Liquid Formulation for External Use)
Using a liquid formulation for external use produced as described above, mouse immunization test was performed in the same manner as that in the mouse immunization test 1. The dose was 67 μL as described above. The liquid formulation was applied once for 24 hours/week and a spleen was isolated 6 days after completion of the application. The mouse used was a C57BL/6.

[2] = system: IFN-γ-producing cells (antigen-specific cellular immunity); experiment: Mouse immunization test 2 (tape preparation), IFN-γ ELISPOT; type: in vivo, genetically modified mouse; details: compared with acid-free comparative example
Procedure: as §1
Mouse Immunization Test 2 (Tape Preparation)
Using thus obtained tape preparation, mouse immunization test 2 was performed in the same manner as in the mouse immunization test 1. The preparation was applied once for 24 hours/week and a spleen was isolated 6 days after administration. Genetically modified mouse which can be used to evaluate the cellular immunity inducing ability of the HLA-A*0201 type MHC restricted peptide was used as model animal for immunological evaluation.
In Example 69, the skin was injured with a microcutter (MICRO FEATHER No. 7330G, manufactured by FEATHER) before the application of the preparation.

Row | SMILES | cellular immunity induction, in words (acid added to liquid formulation) [1] | cellular immunity induction, in words (acid blended in tape preparation) [2]
1 | O=C(O)CC(O)C(=O)O (racemic) [malic acid] | effective | –
2 | O=C(O)CC(O)(CC(=O)O)C(=O)O [citric acid] | effective | –
3 | CCCCCCCCCC(=O)O [decanoic acid] | – | strong cellular immunity was induced
4 | CC(C)CCCCCCCCCCCCCCC(=O)O [isostearic acid] | – | excellent results
5 | CC(O)C(=O)O (stereo not drawn) [lactic acid] | effective | excellent results
6 | CCCCCCCCCCCC(=O)O [lauric acid] | – | excellent results
7 | O=C(O)/C=C\C(=O)O [maleic acid] | effective | –
8 | CS(=O)(=O)O [methanesulfonic acid] | effective | –
9 | CCCCCCCCCCCCCC(=O)O [myristic acid] | – | excellent results
10 | CCCCCCCC/C=C\CCCCCCCC(=O)O [oleic acid] | – | excellent results
11 | O=C(O)c1ccccc1O [salicylic acid] | effective | –
